In this test the target is T1, human mGlu4 receptor (Homo sapiens, UniProt Q14833).
T1 construct: expressed in transfected cells; host or cells: HEK-293 (monoclonal, stably transfected)
Kind of test: Ca2+ mobilization in vitro assay on recombinant human mGlu4 expressed in HEK293 cells (mGlu4 PAM). Format: cell-based. To be noted: for Emax: HEK293, maximal response in % of the maximal stimulatory effect obtained with saturating concentrations of L-AP4, read-out: Eff. (%); for EC50: HEK-293 cells, Ca2+ mobilization, L-AP4 added at EC20. Here is the method:
Determination of EC50 Values Using a Ca2+ mobilization in vitro Assay on Recombinant Human mGlu4 Expressed in HEK293 cells:
A monoclonal HEK-293 cell line stably transfected with a cDNA encoding for the human mGlu4 receptor was generated; for the work with mGlu4 Positive Allosteric Modulators (PAMs), a cell line with low receptor expression levels and low constitutive receptor activity was selected to allow the differentiation of agonistic versus PAM activity. Cells were cultured according to standard protocols (Freshney, 2000) in Dulbecco's Modified Eagle Medium with high glucose supplemented with 1 mM glutamine, 10% (vol/vol) heat-inactivated bovine calf serum, Penicillin/Streptomycin, 50 μg/ml hygromycin and 15 μg/ml blasticidin (all cell culture reagents and antibiotics from Invitrogen, Basel, Switzerland).
About 24 hrs before an experiment, 5×10^4 cells/well were seeded in poly-D-lysine coated, black/clear-bottomed 96-well plates. The cells were loaded with 2.5 μM Fluo-4AM in loading buffer (1×HBSS, 20 mM HEPES) for 1 hr at 37° C. and washed five times with loading buffer. The cells were transferred into a Functional Drug Screening System 7000 (Hamamatsu, Paris, France), and 11 half logarithmic serial dilutions of test compound at 37° C. were added and the cells were incubated for 10-30 min. with on-line recording of fluorescence. Following this pre-incubation step, the agonist (2S)-2-amino-4-phosphonobutanoic acid (L-AP4) was added to the cells at a concentration corresponding to EC20 with on-line recording of fluorescence; in order to account for day-to-day variations in the responsiveness of cells, the EC20 of L-AP4 was determined immediately ahead of each experiment by recording of a full dose-response curve of L-AP4.
Responses were measured as peak increase in fluorescence minus basal (i.e. fluorescence without addition of L-AP4), normalized to the maximal stimulatory effect obtained with saturating concentrations of L-AP4. Graphs were plotted with the % maximal stimulatory using XLfit, a curve fitting program that iteratively plots the data using Levenburg Marquardt algorithm. The single site competition analysis equation used was y=A+((B−A)/(1+((x/C)D))), where y is the % maximal stimulatory effect, A is the minimum y, B is the maximum y, C is the EC50, x is the log 10 of the concentration of the competing compound and D is the slope of the curve (the Hill Coefficient). From these curves the EC50 (drug concentration at which 50% of the maximal receptor activation was achieved), the Hill coefficient as well as the maximal response in % of the maximal stimulatory effect obtained with saturating concentrations of L-AP4 were calculated (see FIG. 1).
A depression of the signal observed after addition of the EC20 concentration of L-AP4was indicative of an inhibitory activity of the test compound.
On the technique in general: Calcium assays in cells follow changes in intracellular calcium, usually with a dye or a luminescent sensor.

Data on 23 compounds can be found in US9725416B2, “Ethynyl derivatives” (Hoffmann-La Roche Inc., priority 2014, dated 2017).

By EC50 is commonly meant the concentration at which the effect is half-maximal.

T1 sequence (Q14833 33-912): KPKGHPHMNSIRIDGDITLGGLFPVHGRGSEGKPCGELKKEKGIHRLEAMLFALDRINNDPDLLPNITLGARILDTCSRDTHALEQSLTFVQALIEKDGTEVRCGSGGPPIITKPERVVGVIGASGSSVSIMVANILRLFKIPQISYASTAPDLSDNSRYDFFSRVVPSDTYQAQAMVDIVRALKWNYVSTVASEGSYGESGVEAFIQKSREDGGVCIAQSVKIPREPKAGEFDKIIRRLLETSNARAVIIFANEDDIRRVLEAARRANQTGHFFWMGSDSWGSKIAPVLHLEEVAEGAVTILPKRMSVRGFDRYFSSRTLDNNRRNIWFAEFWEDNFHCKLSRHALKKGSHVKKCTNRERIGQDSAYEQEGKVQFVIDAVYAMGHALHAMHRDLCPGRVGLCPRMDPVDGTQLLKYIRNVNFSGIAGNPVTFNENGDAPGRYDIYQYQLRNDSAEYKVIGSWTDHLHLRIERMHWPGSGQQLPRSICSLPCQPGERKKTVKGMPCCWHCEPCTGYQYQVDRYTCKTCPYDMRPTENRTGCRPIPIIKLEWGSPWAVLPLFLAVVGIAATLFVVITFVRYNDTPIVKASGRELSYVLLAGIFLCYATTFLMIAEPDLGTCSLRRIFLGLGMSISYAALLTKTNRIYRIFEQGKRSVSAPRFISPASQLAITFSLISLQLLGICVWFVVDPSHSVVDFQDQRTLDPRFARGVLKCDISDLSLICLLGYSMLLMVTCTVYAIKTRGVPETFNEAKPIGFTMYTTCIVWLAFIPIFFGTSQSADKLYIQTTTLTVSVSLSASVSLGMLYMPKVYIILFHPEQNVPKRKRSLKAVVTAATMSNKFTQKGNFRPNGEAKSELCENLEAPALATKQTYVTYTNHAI

For the compound `CN1CCN2C(=O)N(c3c(F)cc(C#Cc4ccccc4)cc3F)C(=O)CC2(C)C1=O` (racemic) [Example 35, (9aRS)-7-[2,6-Difluoro-4-(2-phenylethynyl)phenyl]-2,9a-dimethyl-4,9-dihydro-3H-pyrazino[1,2-c]pyrimidine-1,6,8-trione], the Emax amounted to 131% and the EC50 is 158 nM.

Consider `CN1C(=O)N(c2c(F)cc(C#Cc3ccccc3)cc2F)C(=O)C[C@@]1(C)c1cccnn1` [Example 58, (6S)-3-[2,6-Difluoro-4-(2-phenylethynyl)phenyl]-1,6-dimethyl-6-pyridazin-3-yl-hexahydropyrimidine-2,4-dione], for which the Emax was 99% and the 50% effective concentration (EC50) amounted to 49 nM.

For `CN1C(=O)N(c2c(F)cc(C#Cc3ccccc3)cc2F)C(=O)C[C@@]1(C)c1ccncn1` [Example 55, (6S)-3-[2,6-Difluoro-4-(2-phenylethynyl)phenyl]-1,6-dimethyl-6-pyrimidin-4-yl-hexahydropyrimidine-2,4-dione], the Emax came out at 106% and the EC50 was determined as 44 nM.

Turning to `CN1C(=O)N(c2c(F)cc(C#Cc3cccnc3)cc2F)C(=O)CC1(C)c1ccccc1` (racemic) [Example 15, (6RS)-3-[2,6-Difluoro-4-[2-(3-pyridyl)ethynyl]phenyl]-1,6-dimethyl-6-phenyl-hexahydropyrimidine-2,4-dione], the Emax is 134% and the concentration for a half-maximal effect (EC50) is 100 nM.

With `CN1C(=O)N(c2c(F)cc(C#Cc3ccccc3)cc2F)C(=O)C[C@@]1(C)c1cncc(F)c1` [Example 59, (6S)-3-[2,6-Difluoro-4-(2-phenylethynyl)phenyl]-6-(5-fluoro-3-pyridyl)-1,6-dimethyl-hexahydropyrimidine-2,4-dione], the Emax amounted to 89% and the concentration for a half-maximal effect (EC50) was found to be 75 nM.

Regarding `CN1C(=O)N(c2c(F)cc(C#Cc3ccccc3)cc2F)C(=O)CC1(C)C(C)(C)C` (racemic) [Example 44, (6RS)-6-tert-Butyl-3-[2,6-difluoro-4-(2-phenylethynyl)phenyl]-1,6-dimethyl-hexahydropyrimidine-2,4-dione], the Emax came out at 109% and the 50% effective concentration (EC50) was 66 nM.

`CN1C(=O)N(c2c(F)cc(C#Cc3ccccc3)cc2F)C(=O)CC1(C)c1ccccc1` (racemic) [Example 13, (6RS)-3-[2,6-Difluoro-4-(2-phenylethynyl)phenyl]-1,6-dimethyl-6-phenyl-hexahydropyrimidine-2,4-dione]: the Emax is 119% and the EC50 amounted to 28 nM.

Turning to `CN1C(=O)N(c2c(F)cc(C#Cc3ccccc3)cc2F)C(=O)[C@H]2CCC[C@H]21` (racemic) [Example 11, (4aRS,7aSR)-3-[2,6-Difluoro-4-(2-phenylethynyl)phenyl]-1-methyl-5,6,7,7a-tetrahydro-4aH-cyclopenta[d]pyrimidine-2,4-dione], the Emax stood at 131% and the concentration for a half-maximal effect (EC50) was 163 nM.

Regarding `CCn1cc([C@]2(C)CC(=O)N(c3c(F)cc(C#Cc4ccccc4)cc3F)C(=O)N2C)ccc1=O` [Example 67, (6S)-3-[2,6-Difluoro-4-(2-phenylethynyl)phenyl]-6-(1-ethyl-6-oxo-3-pyridyl)-1,6-dimethyl-hexahydropyrimidine-2,4-dione], the Emax was determined as 106% and the concentration for a half-maximal effect (EC50) came to 56 nM.

Take `COc1cccc(C2(C)CC(=O)N(c3c(F)cc(C#Cc4cccnc4)cc3F)C(=O)N2C)c1` (racemic) [Example 42, (6RS)-3-[2,6-Difluoro-4-[2-(3-pyridyl)ethynyl]phenyl]-6-(3-methoxyphenyl)-1,6-dimethyl-hexahydropyrimidine-2,4-dione]: the Emax came to 116% and the half-maximal effective concentration (EC50) amounted to 165 nM.

For `CN1C(=O)N(c2ccc(C#Cc3ccccc3)cc2Cl)C(=O)CC1(C)c1cccnc1` (racemic) [Example 47, (6RS)-3-[2-Chloro-4-(2-phenylethynyl)phenyl]-1,6-dimethyl-6-(3-pyridyl)hexahydropyrimidine-2,4-dione], the Emax was determined as 121% and the EC50 came to 132 nM.

Take `CN1C(=O)N(c2c(F)cc(C#Cc3cccnc3)cc2F)C(=O)CC1(C)c1ccccc1` (stereo in doubt) [Example 19, (6S)-3-[2,6-Difluoro-4-[2-(3-pyridyl)ethynyl]phenyl]-1,6-dimethyl-6-phenyl-hexahydropyrimidine-2,4-dione]: the Emax was determined as 178% and the 50% effective concentration (EC50) is 50 nM.

In the case of `Cc1ccc([C@]2(C)CC(=O)N(c3c(F)cc(C#Cc4ccccc4)cc3F)C(=O)N2C)cn1` [Example 54, (6S)-3-[2,6-Difluoro-4-(2-phenylethynyl)phenyl]-1,6-dimethyl-6-(6-methyl-3-pyridyl)hexahydropyrimidine-2,4-dione], the Emax turned out to be 98% and the EC50 turned out to be 70 nM.

As for `CC(C)Oc1ccc([C@]2(C)CC(=O)N(c3c(F)cc(C#Cc4ccccc4)cc3F)C(=O)N2C)cn1` [Example 69, (6S)-3-[2,6-Difluoro-4-(2-phenylethynyl)phenyl]-6-(6-isopropoxy-3-pyridyl)-1,6-dimethyl-hexahydropyrimidine-2,4-dione], the Emax was found to be 95% and the EC50 was 97 nM.

Take `CN1C(=O)N(c2c(F)cc(C#Cc3cccnc3)cc2F)C(=O)CC1(C)C1CCCCC1` (racemic) [Example 31, (6RS)-6-Cyclohexyl-3-[2,6-difluoro-4-[2-(3-pyridyl)ethynyl]phenyl]-1,6-dimethyl-hexahydropyrimidine-2,4-dione]: the Emax was 117% and the EC50 is 245 nM.

Consider `CC12CC(=O)N(c3c(F)cc(C#Cc4ccccc4)cc3Cl)C(=O)N1CCNC2=O` (racemic) [Example 86, (9aRS)-7-[2-Chloro-6-fluoro-4-(2-phenylethynyl)phenyl]-9a-methyl-2,3,4,9-tetrahydropyrazino[1,2-c]pyrimidine-1,6,8-trione], for which the Emax is 100% and the EC50 was determined as 108 nM.

As to `CC(C)(C)C1(C)CC(=O)N(c2c(F)cc(C#Cc3ccccc3)cc2F)C(=O)N1` (racemic) [Example 43, (6RS)-6-tert-Butyl-3-[2,6-difluoro-4-(2-phenylethynyl)phenyl]-6-methyl-hexahydropyrimidine-2,4-dione], the Emax worked out at 92% and the EC50 is 75 nM.

Consider `CC(C)C1(C)CC(=O)N(c2c(F)cc(C#Cc3ccccc3)cc2F)C(=O)N1C` (racemic) [Example 26, (6RS)-3-[2,6-Difluoro-4-(2-phenylethynyl)phenyl]-6-isopropyl-1,6-dimethyl-hexahydropyrimidine-2,4-dione], for which the Emax was 107% and the EC50 worked out at 64 nM.

In the case of `CN1C(=O)N(c2c(F)cc(C#Cc3ccccc3)cc2F)C(=O)CC12CCOC2` (racemic) [Example 12, (5RS)-8-[2,6-Difluoro-4-(2-phenylethynyl)phenyl]-6-methyl-2-oxa-6,8-diazaspiro[4.5]decane-7,9-dione], the Emax turned out to be 115% and the concentration giving a half-maximal response (EC50) worked out at 260 nM.

For the compound `CN1C(=O)N(c2c(F)cc(C#Cc3ccccc3)cc2F)C(=O)C[C@@]1(C)c1cc[nH]c(=O)c1` [Example 74, (6S)-3-[2,6-Difluoro-4-(2-phenylethynyl)phenyl]-1,6-dimethyl-6-(2-oxo-1H-pyridin-4-yl)hexahydropyrimidine-2,4-dione], the Emax was 116% and the 50% effective concentration (EC50) stood at 42 nM.

`CN1C(=O)N(c2c(F)cc(C#Cc3ccccc3)cc2Cl)C(=O)C[C@@]1(C)c1cccnc1` [Example 71, (6S)-3-[2-Chloro-6-fluoro-4-(2-phenylethynyl)phenyl]-1,6-dimethyl-6-(3-pyridyl)hexahydropyrimidine-2,4-dione]: the Emax was 105% and the EC50 turned out to be 148 nM.

With `CN1C(=O)N(c2c(F)cc(C#Cc3ccccc3)cc2F)C(=O)CC12CCCOC2` (racemic) [Example 17, (6RS)-3-[2,6-Difluoro-4-(2-phenylethynyl)phenyl]-1-methyl-8-oxa-1,3-diazaspiro[5.5]undecane-2,4-dione], the Emax amounted to 129% and the EC50 was found to be 183 nM.

Regarding `CN1C(=O)N(c2c(F)cc(C#Cc3ccccc3)cc2F)C(=O)CC1(C)C` [Example 1, 3-[2,6-Difluoro-4-(2-phenylethynyl)phenyl]-1,6,6-trimethyl-hexahydropyrimidine-2,4-dione], the Emax was found to be 191% and the EC50 is 92 nM.
